Values belong to the compound of their own block, whether it stands above or below them. Activity calls are given as the source filed them. The calls are words filed in the database; no cut-off is given here.
Columns and labels:
[1] = system: GTPase KRas (Homo sapiens), P01116 [G12C]; experiment: Inhibition of KRAS G12C mutant in human NCI-H358 cells assessed as reduction in ERK1/2 phosphorylation at T185/Y187 residues at 0.5 uM incubated for 0.5 to 4 hrs by Western blot analysis; type: cell-based; conditions: time 0.5-4 hrs
MIA PaCa-2 = experiment: Antiproliferative activity against human MIA PaCa-2 cells assessed as inhibition of cell growth incubated for 72 hrs by cell count reagent SF based assay; type: functional; conditions: MIA PaCa-2, 72 h
[2] = system: GTPase KRas (Homo sapiens), P01116 [G12C]; experiment: Covalent inhibition of KRAS G12C mutant in human NCI-H358 cells assessed as reduction in protein labelling by probe at 1 uM preincubated for 3 hrs and further incubated with 2-((S)-4-(7-(8-chloronaphthalen-1-yl)-2-(((S)-1-(pent-4-yn-1-yl)pyrrolidin-2-yl)methoxy)-5,6,7,8-tetrahydropyrido[3,4-d]pyrimi …; type: cell-based; conditions: time 4.0 hrs
[3] = Metabolic stability in human liver microsomes assessed as clearance at 1 uM incubated for 30 mins by LC-MS/MS analysis; type: ADME, Microsome; conditions: read-out: CLH
NCI-H358 = experiment: Antiproliferative activity against human NCI-H358 cells harboring KRAS p.G12C mutant assessed as inhibition of cell growth incubated for 72 hrs by cell count reagent SF based assay; type: functional; conditions: NCI-H358, 72 h
[4] = system: GTPase KRas (Homo sapiens), P01116 [G12C]; experiment: Inhibition of KRAS G12C mutant in human MIA PaCa-2 cells assessed as reduction in ERK1/2 phosphorylation at T185/Y187 residues at 0.001 to 1 uM incubated for 4 hrs by Western blot analysis; type: cell-based; conditions: dose 0.001-1 µM
[5] = system: GTPase KRas (Homo sapiens), P01116 [G12C]; experiment: Irreversible inhibition of KRAS G12C mutant in human NCI-H358 cells assessed as reduction in ERK1/2 phosphorylation at T185/Y187 residues at 0.001 to 1 uM incubated for 4 hrs followed by washout and further incubated with fresh medium for 4 hrs by Western blot analysis; type: cell-based; conditions: dose 0.001-1 µM
[6] = system: GTPase KRas (Homo sapiens), P01116 [G12C]; experiment: Inhibition of KRAS G12C mutant in human NCI-H358 cells assessed as reduction in ERK1/2 phosphorylation at T185/Y187 residues at 0.001 to 1 uM incubated for 4 hrs by Western blot analysis; type: cell-based; conditions: dose 0.001-1 µM
[7] = system: GTPase KRas (Homo sapiens), P01116 [G12C]; experiment: Inhibition of KRAS G12C mutant in human MIA PaCa-2 cells assessed as reduction in ERK1/2 phosphorylation at T185/Y187 residues at 0.5 uM incubated for 0.5 to 4 hrs by Western blot analysis; type: cell-based; conditions: time 0.5-4 hrs
[8] = system: GTPase KRas (Homo sapiens), P01116 [G12C]; experiment: Inhibition of KRAS G12C mutant in human NCI-H358 cells assessed as reduction in ERK1/2 phosphorylation at T185/Y187 residues at 1 uM incubated for 4 hrs by Western blot analysis; type: cell-based
[9] = system: GTPase KRas (Homo sapiens), P01116 [G12C]; experiment: Inhibition of KRAS G12C mutant in human NCI-H358 cells assessed as reduction in ERK1/2 phosphorylation at T185/Y187 residues at 0.1 uM incubated for 4 hrs by Western blot analysis relative to control; type: cell-based
[10] = Glutathione reactivity in potassium phosphate buffer at pH 7.2 assessed as half life at 1 mM by UHPLC analysis; type: physicochemical
[11] = Antiproliferative activity against human gefitinib resistant NCI-H1975 cells harboring EGFR L858R/T790M double mutant assessed as inhibition of cell proliferation incubated for 72 hrs by cell count reagent SF based assay; type: functional
[12] = system: GTPase KRas (Homo sapiens), P01116 [G12C]; experiment: Covalent binding affinity to recombinant human KRAS G12C mutant (1 to 169 residues) expressed in Escherichia coli BL21 (DE3) gold assessed as protein labelling at 1 uM incubated for 2 hrs by In-gel fluorescence analysis
[13] = molecular target: Epidermal growth factor receptor (Homo sapiens) (UniProt P00533); experiment: Inhibition of EGFR autophosphorylation in human NCI-H1975 cells assessed as reduction in ERK1/2 phosphorylation at T185/Y187 residue at 0.01 to 1 uM incubated for 4 hrs by Western blot analysis; type: cell-based; conditions: dose 0.01-1 µM
[14] = molecular target: Epidermal growth factor receptor (Homo sapiens) (UniProt P00533); experiment: Inhibition of EGFR autophosphorylation at Y1068 residue in human NCI-H1975 cells at 0.01 to 1 uM incubated for 4 hrs by Western blot analysis; type: cell-based; conditions: dose 0.01-1 µM
[15] = system: GTPase KRas (Homo sapiens), P01116 [G12C]; experiment: Binding affinity to KRAS G12C mutant in human NCI-H358 cells assessed as protein labelling at 1 uM incubated for 1 hrs by In-gel fluorescence analysis; type: cell-based
[16] = system: GTPase KRas (Homo sapiens), P01116 [G12C]; experiment: Inhibition of KRAS G12C mutant in human NCI-H358 cells assessed as reduction in ERK1/2 phosphorylation at T185/Y187 residues upto 10 uM incubated for 4 hrs by Western blot analysis; type: cell-based

IC50 (NCI-H358): 1390 nM
SMILES: CN1CCC[C@H]1COc1nc2c(c(N3CCN(C(=O)CCl)[C@@H](CC#N)C3)n1)CCN(c1cccc3cccc(Cl)c13)C2

IC50 (NCI-H358): 4800 nM
SMILES: CN1CCC[C@H]1COc1nc2c(c(N3CCN(C(=O)C(F)Cl)CC3)n1)CCN(c1cccc3cccc(Cl)c13)C2 (some centres undefined)

half-life at 1000 µM [10]: 129 h
SMILES: C#CCOCCOCCOc1cccc(N2CCN(C(=O)C(F)F)CC2)c1

IC50 (NCI-H358): 365 nM
Activity [12]: Active
SMILES: C#CCCCN1CCC[C@H]1COc1nc2c(c(N3CCN(C(=O)[C@@H](F)Cl)[C@@H](CC#N)C3)n1)CCN(c1cccc3cccc(Cl)c13)C2

IC50 (NCI-H358): 69.7 nM
Activity [12]: Active
SMILES: C#CCCCN1CCC[C@H]1COc1nc2c(c(N3CCN(C(=O)C(Cl)Cl)[C@@H](CC#N)C3)n1)CCN(c1cccc3ccc(F)c(Cl)c13)C2

Activity [15]: Active
SMILES: C#CCCCN1CCC[C@H]1COc1nc2c(c(N3CCN(C(=O)C(=C)F)[C@@H](CC#N)C3)n1)CCN(c1cccc3cccc(Cl)c13)C2

half-life at 1000 µM [10]: 33.4 h
SMILES: C#CCOCCOCCOc1cccc(N2CCN(C(=O)C(F)(F)Br)CC2)c1

half-life at 1000 µM [10]: > 167 h
SMILES: C#CCOCCOCCOc1cccc(N2CCN(C(=O)C(C)(F)Br)CC2)c1 (centres undefined)

The next lines start with the compound.

SMILES: CN1CCC[C@H]1COc1nc2c(c(N3CCN(C(=O)C(Cl)Cl)[C@@H](CC#N)C3)n1)CCN(c1cccc3ccc(F)c(Cl)c13)C2
inhibition [1]: Active
IC50 (MIA PaCa-2): 5.68 nM
inhibition [2]: Active
microsomal CLint at 1 µM [3]: 110 µL/min/mg
IC50 (NCI-H358): 10 nM
inhibition [4]: Active
inhibition [5]: Active
inhibition [6]: Active
inhibition [7]: Active

SMILES: CN1CCC[C@H]1COc1nc2c(c(N3CCN(C(=O)[C@@H](F)Cl)[C@@H](CC#N)C3)n1)CCN(c1cccc3cccc(Cl)c13)C2
microsomal CLint at 1 µM [3]: 272 µL/min/mg
inhibition [8]: Active
IC50 (NCI-H358): 12.3 nM
inhibition [9]: 100%

SMILES: O=C(Nc1cc2c(Nc3ccc(F)c(Cl)c3)ncnc2cc1OCCCN1CCOCC1)[C@H]1CCCN1C(=O)C(F)Cl (some centres undefined)
IC50 [11]: 280 nM

SMILES: CN1CCC[C@H]1COc1nc2c(c(N3CCN(C(=O)C(Cl)Cl)[C@@H](CC#N)C3)n1)CCN(c1cccc3cccc(Cl)c13)C2
microsomal CLint at 1 µM [3]: 226 µL/min/mg
inhibition [8]: Active
IC50 (NCI-H358): 26.1 nM
inhibition [9]: 100%

SMILES: C#CCOCCOCCOc1cccc(N2CCN(C(=O)CF)CC2)c1
half-life at 1000 µM [10]: > 167 h

SMILES: C=C(F)C(=O)N1CCN(c2nc(OC[C@@H]3CCCN3C)nc3c2CCN(c2cccc4cccc(Cl)c24)C3)C[C@@H]1CC#N [ADAGRASIB]
IC50 (MIA PaCa-2): 3.92 nM
microsomal CLint at 1 µM [3]: 215 µL/min/mg
IC50 (NCI-H358): 9.2 nM

SMILES: O=C(Nc1cc2c(Nc3ccc(F)c(Cl)c3)ncnc2cc1OCCCN1CCOCC1)[C@H]1CCCN1C(=O)C(Cl)Cl
inhibition [13]: Active
IC50 [11]: 490 nM
inhibition [14]: Active

SMILES: CN1CCC[C@H]1COc1nc2c(c(N3CCN(C(=O)C(F)Cl)[C@@H](CC#N)C3)n1)CCN(c1cccc3cccc(Cl)c13)C2 (some centres undefined)
IC50 (NCI-H358): 16.7 nM

SMILES: CC(=O)N1CCN(c2nc(OC[C@@H]3CCCN3C)nc3c2CCN(c2cccc4cccc(Cl)c24)C3)C[C@@H]1CC#N (racemic)
inhibition [16]: inactive
IC50 (NCI-H358): > 10000 nM

SMILES: CN1CCC[C@H]1COc1nc2c(c(N3CCN(C(=O)[C@H](F)Cl)[C@@H](CC#N)C3)n1)CCN(c1cccc3cccc(Cl)c13)C2
IC50 (NCI-H358): 162 nM

— ChEMBL document CHEMBL5331132, “Expanding the Chemistry of Dihaloacetamides as Tunable Electrophiles for Reversible Covalent Targeting of Cysteines” (J Med Chem, 2023)
